In ChEMBL document CHEMBL5360518, “Discovery of a novel photoswitchable PI3K inhibitor toward optically-controlled anticancer activity” (Bioorg Med Chem, 2022) one finds IC50, inhibition and Activity data, which are given here for two compounds.

Activity calls are given as the source filed them. No cut-off for these calls is given here.

Experiment [1] has as its target T1, Phosphatidylinositol 4,5-bisphosphate 3-kinase catalytic subunit alpha isoform (Homo sapiens, UniProt P42336). Nature of the experiment: Inhibition of PI3Kalpha (unknown origin) using PIP2 as substrate incubated for 1 hr in presence of ATP under irradiation with 365 nm UV light by ADP-Glo luminescent assay.
In experiment [2] the target is RAC-alpha serine/threonine-protein kinase (Homo sapiens) (UniProt P31749). Nature of the experiment: Inhibition of AKT phosphorylation at S473 residue in human HGC-27 cells harboring PI3KCA mutation and overactive PI3K pathway by Western blot analysis. The format is cell-based. Conditions: dose 0.08-0.4 µM.
RAC-alpha serine/threonine-protein kinase (Homo sapiens), sequence (P31749 whole entry): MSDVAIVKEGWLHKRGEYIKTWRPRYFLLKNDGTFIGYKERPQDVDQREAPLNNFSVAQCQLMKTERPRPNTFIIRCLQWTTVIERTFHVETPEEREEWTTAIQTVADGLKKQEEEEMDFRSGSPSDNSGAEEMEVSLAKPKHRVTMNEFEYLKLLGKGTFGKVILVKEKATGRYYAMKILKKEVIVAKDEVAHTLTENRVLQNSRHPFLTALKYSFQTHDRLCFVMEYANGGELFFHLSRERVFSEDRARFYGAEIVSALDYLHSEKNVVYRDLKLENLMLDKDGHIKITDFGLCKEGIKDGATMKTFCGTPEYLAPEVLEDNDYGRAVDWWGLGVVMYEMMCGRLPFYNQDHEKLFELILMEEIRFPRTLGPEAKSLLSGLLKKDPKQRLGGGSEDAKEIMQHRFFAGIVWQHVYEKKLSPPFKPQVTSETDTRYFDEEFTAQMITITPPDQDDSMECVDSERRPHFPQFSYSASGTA
The target is the same in experiment [3]. Nature of the experiment: Inhibition of AKT phosphorylation at T308 residue in human HGC-27 cells harboring PI3KCA mutation and overactive PI3K pathway by Western blot analysis. The experiment is classed as cell-based. Conditions: dose 0.08-0.4 µM.
In experiment [4] the target is T2, Ribosomal protein S6 kinase (Homo sapiens) (UniProt P51812+Q9UBS0+O75676+Q15349+O75582+P23443+Q9UK32+Q15418). The experiment can be described thus: Inhibition of S6 phosphorylation in human HGC-27 cells harboring PI3KCA mutation and overactive PI3K pathway by Western blot analysis. Conditions: dose 0.08-0.4 µM. The format is cell-based.
The target of experiment [5] is RAC-alpha serine/threonine-protein kinase (Homo sapiens) (UniProt P31749). Nature of the experiment: Inhibition of AKT phosphorylation at S473 residue in human HGC-27 cells harboring PI3KCA mutation and overactive PI3K pathway at 0.08 to 0.4 uM compound irradiated for 5 mins at 520 nm by Western blot analysis. Conditions: dose 0.08-0.4 µM. The experiment is classed as cell-based.

Experiment [6] has the same target. Nature of the experiment: Inhibition of AKT phosphorylation at T308 residue in human HGC-27 cells harboring PI3KCA mutation and overactive PI3K pathway at 0.08 to 0.4 uM compound irradiated for 5 mins at 520 nm by Western blot analysis. Conditions: dose 0.08-0.4 µM. The experiment is classed as cell-based.
For experiment [7], the target named is T2, Ribosomal protein S6 kinase (Homo sapiens). Nature of the experiment: Inhibition of S6 phosphorylation in human HGC-27 cells harboring PI3KCA mutation and overactive PI3K pathway at 0.08 to 0.4 uM compound irradiated for 5 mins at 520 nm by Western blot analysis. The experiment is classed as cell-based. Conditions: dose 0.08-0.4 µM.
The test system of experiment [8] is HGC-27. The experiment can be described thus: Induction of apoptosis in human HGC-27 cells harboring PI3KCA mutation and overactive PI3K pathway assessed as early apoptotic cells at 0.08 uM incubated for 48 hrs under irradiation with 365 nm UV light 2 mins once for every 8 hrs by Annexin V-FITC/PI staining based flow cytometry analysis (reference value: 2.26%). The experiment is classed as functional.

Experiment [9] concerns HGC-27. Nature of the experiment: Induction of apoptosis in human HGC-27 cells harboring PI3KCA mutation and overactive PI3K pathway assessed as late apoptotic cells at 0.08 uM incubated for 48 hrs under irradiation with 365 nm UV light 2 mins once for every 8 hrs by Annexin V-FITC/PI staining based flow cytometry analysis (reference value: 3.39%). The experiment is classed as functional.

The subject of experiment [10] is HGC-27. Nature of the experiment: Induction of apoptosis in human HGC-27 cells harboring PI3KCA mutation and overactive PI3K pathway assessed as early apoptotic cells at 0.4 uM incubated for 48 hrs under irradiation with 365 nm UV light 2 mins once for every 8 hrs by Annexin V-FITC/PI staining based flow cytometry analysis (reference value: 2.26%). The experiment is classed as functional.

Experiment [11] deals with HGC-27. The experiment can be described thus: Induction of apoptosis in human HGC-27 cells harboring PI3KCA mutation and overactive PI3K pathway assessed as late apoptotic cells at 0.4 uM incubated for 48 hrs under irradiation with 365 nm UV light 2 mins once for every 8 hrs by Annexin V-FITC/PI staining based flow cytometry analysis (reference value: 3.39%). The format is functional.

Experiment [12] relates to NCI-H460. The experiment can be described thus: Induction of apoptosis in human NCI-H460 cells harboring PI3KCA mutation and overactive PI3K pathway assessed as early apoptotic cells at 0.08 uM incubated for 48 hrs under irradiation with 365 nm UV light 2 mins once for every 8 hrs by Annexin V-FITC/PI staining based flow cytometry analysis (reference value: 2.6%). The format is functional.

Experiment [13] deals with NCI-H460. The experiment can be described thus: Induction of apoptosis in human NCI-H460 cells harboring PI3KCA mutation and overactive PI3K pathway assessed as late apoptotic cells at 0.08 uM incubated for 48 hrs under irradiation with 365 nm UV light 2 mins once for every 8 hrs by Annexin V-FITC/PI staining based flow cytometry analysis (reference value: 2.27%). The format is functional.

The test system of experiment [14] is NCI-H460. The experiment can be described thus: Induction of apoptosis in human NCI-H460 cells harboring PI3KCA mutation and overactive PI3K pathway assessed as early apoptotic cells at 0.4 uM incubated for 48 hrs under irradiation with 365 nm UV light 2 mins once for every 8 hrs by Annexin V-FITC/PI staining based flow cytometry analysis (reference value: 2.6%). The experiment is classed as functional.

Experiment [15] concerns NCI-H460. The experiment can be described thus: Induction of apoptosis in human NCI-H460 cells harboring PI3KCA mutation and overactive PI3K pathway assessed as late apoptotic cells at 0.4 uM incubated for 48 hrs under irradiation with 365 nm UV light 2 mins once for every 8 hrs by Annexin V-FITC/PI staining based flow cytometry analysis (reference value: 2.27%). The experiment is classed as functional.

For experiment [16], the system named is HGC-27. Nature of the experiment: Inhibition of colony formation in human HGC-27 cells harboring PI3KCA mutation and overactive PI3K pathway assessed as reduction in number of colonies incubated for 10 days in presence of irradiation at 365 nm UV light for 2 mins once every 8 hrs by crystal violet staining based assay. Conditions: dose 0.08-0.4 µM, time 10.0 day. The format is functional, cell-based.

Experiment [17] concerns HGC-27. The experiment can be described thus: Inhibition of cell migration in human HGC-27 cells harboring PI3KCA mutation and overactive PI3K pathway assessed as reduction in migratory ability at 0.08 to 0.4 uM incubated for 16 hrs in presence of irradiation at 365 nm UV light for 2 mins once every 8 hrs by crystal violet staining based assay. The experiment is classed as functional. Conditions: dose 0.08-0.4 µM.

The subject of experiment [18] is HGC-27. The experiment can be described thus: Antitumor activity against CM-Dil labeled human HGC-27 cells implanted in yolk sac of Albino wild type zebrafish embryos assessed as inhibition of tumor growth by measuring reduction in fluorescence density at 0.391 to 0.781 ng per fish incubated for 48 hrs in presence of irradiation with 365 nm UV light by fluorescence microscopic analysis. The format is functional, cell-based. Conditions: dose 0.391-0.781 ng.

Experiment [19] concerns the target T1, Phosphatidylinositol 4,5-bisphosphate 3-kinase catalytic subunit alpha isoform. Nature of the experiment: Inhibition of PI3Kalpha (unknown origin) using PIP2 as substrate incubated for 1 hr in presence of ATP under dark condition by ADP-Glo luminescent assay.
The target in experiment [20] is RAC-alpha serine/threonine-protein kinase (Homo sapiens) (UniProt P31749). The experiment can be described thus: Inhibition of AKT phosphorylation at S473 residue in human HGC-27 cells harboring PI3KCA mutation and overactive PI3K pathway at 0.08 to 0.4 uM compound irradiated for 2 mins at 365 nm by Western blot analysis. Conditions: dose 0.08-0.4 µM. The experiment is classed as cell-based.

Experiment [21] has the same target. Nature of the experiment: Inhibition of AKT phosphorylation at T308 residue in human HGC-27 cells harboring PI3KCA mutation and overactive PI3K pathway at 0.08 to 0.4 uM compound irradiated for 2 mins at 365 nm by Western blot analysis. Conditions: dose 0.08-0.4 µM. The experiment is classed as cell-based.
Experiment [22] deals with T2, Ribosomal protein S6 kinase (Homo sapiens). The experiment can be described thus: Inhibition of S6 phosphorylation in human HGC-27 cells harboring PI3KCA mutation and overactive PI3K pathway at 0.08 to 0.4 uM compound irradiated for 2 mins at 365 nm by Western blot analysis. Conditions: dose 0.08-0.4 µM. The experiment is classed as cell-based.
In experiment [23] the test system is HGC-27. The experiment can be described thus: Induction of apoptosis in human HGC-27 cells harboring PI3KCA mutation and overactive PI3K pathway assessed as early apoptotic cells at 0.08 uM incubated for 48 hrs under dark condition by Annexin V-FITC/PI staining based flow cytometry analysis (reference value: 2.26%). The format is functional.
For experiment [24], the system named is HGC-27. The experiment can be described thus: Induction of apoptosis in human HGC-27 cells harboring PI3KCA mutation and overactive PI3K pathway assessed as late apoptotic cells at 0.08 uM incubated for 48 hrs under dark condition by Annexin V-FITC/PI staining based flow cytometry analysis (reference value: 3.39%). The experiment is classed as functional.

Experiment [25] relates to HGC-27. Nature of the experiment: Induction of apoptosis in human HGC-27 cells harboring PI3KCA mutation and overactive PI3K pathway assessed as early apoptotic cells at 0.4 uM incubated for 48 hrs under dark condition by Annexin V-FITC/PI staining based flow cytometry analysis (reference value: 2.26%). The format is functional.
Experiment [26] relates to HGC-27. The experiment can be described thus: Induction of apoptosis in human HGC-27 cells harboring PI3KCA mutation and overactive PI3K pathway assessed as late apoptotic cells at 0.4 uM incubated for 48 hrs under dark condition by Annexin V-FITC/PI staining based flow cytometry analysis (reference value: 3.39%). The format is functional.
Experiment [27] concerns NCI-H460. The experiment can be described thus: Induction of apoptosis in human NCI-H460 cells harboring PI3KCA mutation and overactive PI3K pathway assessed as early apoptotic cells at 0.08 uM incubated for 48 hrs under dark condition by Annexin V-FITC/PI staining based flow cytometry analysis (reference value: 2.6%). The format is functional.
The subject of experiment [28] is NCI-H460. The experiment can be described thus: Induction of apoptosis in human NCI-H460 cells harboring PI3KCA mutation and overactive PI3K pathway assessed as late apoptotic cells at 0.08 uM incubated for 48 hrs under dark condition by Annexin V-FITC/PI staining based flow cytometry analysis (reference value: 2.27%). The experiment is classed as functional.
In experiment [29] the test system is NCI-H460. The experiment can be described thus: Induction of apoptosis in human NCI-H460 cells harboring PI3KCA mutation and overactive PI3K pathway assessed as early apoptotic cells at 0.4 uM incubated for 48 hrs under dark condition by Annexin V-FITC/PI staining based flow cytometry analysis (reference value: 2.6%). The experiment is classed as functional.

Experiment [30] concerns NCI-H460. Nature of the experiment: Induction of apoptosis in human NCI-H460 cells harboring PI3KCA mutation and overactive PI3K pathway assessed as late apoptotic cells at 0.4 uM incubated for 48 hrs under dark condition by Annexin V-FITC/PI staining based flow cytometry analysis (reference value: 2.27%). The experiment is classed as functional.
For experiment [31], the system named is HGC-27. Nature of the experiment: Inhibition of colony formation in human HGC-27 cells harboring PI3KCA mutation and overactive PI3K pathway assessed as reduction in number of colonies incubated for 10 days under dark condition by crystal violet staining based assay. The experiment is classed as functional, cell-based. Conditions: dose 0.08-0.4 µM, time 10.0 day.

The test system of experiment [32] is HGC-27. The experiment can be described thus: Inhibition of cell migration in human HGC-27 cells harboring PI3KCA mutation and overactive PI3K pathway assessed as reduction in migratory ability at 0.08 to 0.4 uM incubated for 16 hrs under dark condition by crystal violet staining based assay. The experiment is classed as functional. Conditions: dose 0.08-0.4 µM.

Experiment [33] has as its system HGC-27. The experiment can be described thus: Antitumor activity against CM-Dil labeled human HGC-27 cells implanted in yolk sac of Albino wild type zebrafish embryos assessed as inhibition of tumor growth by measuring reduction in fluorescence density at 0.391 to 0.781 ng per fish incubated for 48 hrs in dark condition by fluorescence microscopic analysis. The format is functional. Conditions: dose 0.391-0.781 ng.

T1 sequence (P42336 whole entry, canonical isoform): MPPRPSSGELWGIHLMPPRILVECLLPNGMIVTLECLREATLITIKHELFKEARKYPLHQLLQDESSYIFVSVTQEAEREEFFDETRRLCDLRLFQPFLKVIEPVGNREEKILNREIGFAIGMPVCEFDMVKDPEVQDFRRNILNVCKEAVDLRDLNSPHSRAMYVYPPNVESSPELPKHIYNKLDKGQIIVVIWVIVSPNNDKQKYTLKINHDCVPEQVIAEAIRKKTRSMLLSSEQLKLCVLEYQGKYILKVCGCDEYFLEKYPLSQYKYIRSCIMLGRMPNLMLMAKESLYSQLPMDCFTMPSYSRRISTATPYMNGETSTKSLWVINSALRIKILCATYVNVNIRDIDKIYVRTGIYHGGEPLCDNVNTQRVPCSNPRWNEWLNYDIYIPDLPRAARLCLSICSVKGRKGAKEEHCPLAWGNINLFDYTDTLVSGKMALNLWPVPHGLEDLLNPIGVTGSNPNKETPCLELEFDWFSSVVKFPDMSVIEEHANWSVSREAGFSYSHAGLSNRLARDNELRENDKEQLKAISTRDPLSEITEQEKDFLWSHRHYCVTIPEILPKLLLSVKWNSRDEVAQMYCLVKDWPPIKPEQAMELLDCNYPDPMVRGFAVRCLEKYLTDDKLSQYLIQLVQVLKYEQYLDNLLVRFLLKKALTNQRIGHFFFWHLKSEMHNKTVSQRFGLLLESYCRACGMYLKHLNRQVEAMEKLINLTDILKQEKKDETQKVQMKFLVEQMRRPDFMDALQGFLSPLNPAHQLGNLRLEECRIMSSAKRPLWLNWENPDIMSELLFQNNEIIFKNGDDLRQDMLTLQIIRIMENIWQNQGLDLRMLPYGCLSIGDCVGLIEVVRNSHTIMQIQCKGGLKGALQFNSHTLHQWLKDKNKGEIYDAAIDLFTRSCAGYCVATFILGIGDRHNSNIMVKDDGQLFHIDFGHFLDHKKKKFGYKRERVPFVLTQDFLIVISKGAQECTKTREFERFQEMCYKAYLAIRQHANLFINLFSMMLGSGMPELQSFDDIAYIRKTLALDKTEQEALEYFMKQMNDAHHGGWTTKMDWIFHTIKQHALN

As to `COc1ncc(-c2cc(Oc3ccc(/N=N\c4ccc(Oc5cc(-c6cnc(OC)c(NS(=O)(=O)c7ccc(F)cc7F)c6)cc6c(C)ncnc56)cc4)cc3)c3ncnc(C)c3c2)cc1NS(=O)(=O)c1ccc(F)cc1F`, the IC50 in experiment [1] is 0.00524 µM. Further, the inhibition result in experiment [2], in experiment [3], in [4] and in experiment [16] was “Dose-Dependent Effect” in each case. Also, the inhibition entry in experiment [5], in experiment [6], in experiment [7] and in experiment [17] was “Active” throughout. In addition, the Activity in [8] is given as 33.67%; in experiment [9] it was 3.6%; in [10] it was 66.74%; in experiment [11], 14.28%; in experiment [12], 5.44%; in [13] it was 18.8%. Also, the Activity is 6.05% in experiment [14] and 26.4% in experiment [15]. Further, in experiment [18], the outcome was Active.

With `COc1ncc(-c2cc(Oc3ccc(/N=N/c4ccc(Oc5cc(-c6cnc(OC)c(NS(=O)(=O)c7ccc(F)cc7F)c6)cc6c(C)ncnc56)cc4)cc3)c3ncnc(C)c3c2)cc1NS(=O)(=O)c1ccc(F)cc1F`, in [19], the IC50 was 0.0177 µM. For the same compound, the inhibition entry in [2], in [3], in [4] and in experiment [31] was “Dose-Dependent Effect” in each case. The inhibition result in experiment [20], in experiment [21], in [22] and in experiment [32] was “Active” in each case. The Activity is listed as 7.28% in experiment [23]; 5.11% in experiment [24]; 14.86% in experiment [25]; 15.95% in experiment [26]; 2.69% in [27]; 3.17% in experiment [28]. Further, the results for the Activity in experiment [29] and in experiment [30] were 2.36% and 4.84%, respectively. The outcome in [33] was Active.
